According to the kinase profiling compilation of Christmann-Franck et al. (2016):

Experiments:
Test in all cases: KINOMEscan competition binding
Conditions in all cases: compound 10.0 µM
[1] = biological target: EPHB2 (human) (UniProt P29323)
[2] = biological target: RAF1 (human) (UniProt P04049)
[3] = biological target: TNNI3K (human) (UniProt Q59H18)
[4] = biological target: TNK1 (human) (UniProt Q13470)
[5] = biological target: GSK3B (human) (UniProt P49841)
[6] = biological target: CLK1 (human) (UniProt P49759)
[7] = biological target: PRKD1 (human) (UniProt Q15139)
[8] = biological target: EPHA5 (human) (UniProt P54756)
[9] = biological target: MAPK7 (human) (UniProt Q13164)
Sequence of MAPK7 (human) (Q13164 whole entry, looked up): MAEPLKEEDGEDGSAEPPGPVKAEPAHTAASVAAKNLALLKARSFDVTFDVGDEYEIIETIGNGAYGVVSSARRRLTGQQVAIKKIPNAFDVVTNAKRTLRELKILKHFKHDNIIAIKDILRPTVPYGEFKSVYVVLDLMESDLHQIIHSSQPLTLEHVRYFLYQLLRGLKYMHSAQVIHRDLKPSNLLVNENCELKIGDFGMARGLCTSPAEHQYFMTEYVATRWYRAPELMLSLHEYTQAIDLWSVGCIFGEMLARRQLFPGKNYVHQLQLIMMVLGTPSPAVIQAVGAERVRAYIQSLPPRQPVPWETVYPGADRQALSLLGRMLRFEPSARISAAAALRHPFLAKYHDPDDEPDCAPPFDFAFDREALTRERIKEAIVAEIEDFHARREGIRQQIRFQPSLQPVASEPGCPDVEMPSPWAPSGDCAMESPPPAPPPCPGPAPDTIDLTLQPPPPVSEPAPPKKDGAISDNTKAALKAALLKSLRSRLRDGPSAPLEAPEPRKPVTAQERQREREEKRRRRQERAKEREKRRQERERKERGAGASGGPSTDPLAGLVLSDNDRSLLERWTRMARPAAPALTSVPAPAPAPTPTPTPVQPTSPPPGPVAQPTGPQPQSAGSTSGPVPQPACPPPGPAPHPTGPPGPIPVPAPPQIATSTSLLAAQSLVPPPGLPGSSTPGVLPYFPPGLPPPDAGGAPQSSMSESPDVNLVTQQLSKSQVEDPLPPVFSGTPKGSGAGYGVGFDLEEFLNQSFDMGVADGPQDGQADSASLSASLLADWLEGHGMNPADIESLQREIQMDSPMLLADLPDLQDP

[10] = biological target: PLK3 (human) (UniProt Q9H4B4)
[11] = biological target: PAK4 (human) (UniProt O96013)
[12] = biological target: MAPK10 (human) (UniProt P53779)
Sequence of MAPK10 (human) (P53779 whole entry, looked up): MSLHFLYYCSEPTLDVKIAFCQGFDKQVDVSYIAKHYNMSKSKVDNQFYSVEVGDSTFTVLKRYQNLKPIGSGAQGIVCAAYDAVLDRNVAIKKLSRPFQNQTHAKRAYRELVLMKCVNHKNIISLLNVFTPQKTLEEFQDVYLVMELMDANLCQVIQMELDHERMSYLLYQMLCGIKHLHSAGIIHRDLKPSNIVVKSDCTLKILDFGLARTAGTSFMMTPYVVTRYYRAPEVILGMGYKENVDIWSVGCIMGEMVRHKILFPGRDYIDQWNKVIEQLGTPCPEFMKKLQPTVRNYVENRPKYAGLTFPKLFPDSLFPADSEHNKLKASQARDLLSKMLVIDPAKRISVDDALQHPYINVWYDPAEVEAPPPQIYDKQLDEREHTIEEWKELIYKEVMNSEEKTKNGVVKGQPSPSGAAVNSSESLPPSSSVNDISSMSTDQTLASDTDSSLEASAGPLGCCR

[13] = biological target: HIPK1 (human) (UniProt Q86Z02)
[14] = biological target: WEE2 (human) (UniProt P0C1S8)
Sequence of WEE2 (human) (P0C1S8 whole entry, looked up): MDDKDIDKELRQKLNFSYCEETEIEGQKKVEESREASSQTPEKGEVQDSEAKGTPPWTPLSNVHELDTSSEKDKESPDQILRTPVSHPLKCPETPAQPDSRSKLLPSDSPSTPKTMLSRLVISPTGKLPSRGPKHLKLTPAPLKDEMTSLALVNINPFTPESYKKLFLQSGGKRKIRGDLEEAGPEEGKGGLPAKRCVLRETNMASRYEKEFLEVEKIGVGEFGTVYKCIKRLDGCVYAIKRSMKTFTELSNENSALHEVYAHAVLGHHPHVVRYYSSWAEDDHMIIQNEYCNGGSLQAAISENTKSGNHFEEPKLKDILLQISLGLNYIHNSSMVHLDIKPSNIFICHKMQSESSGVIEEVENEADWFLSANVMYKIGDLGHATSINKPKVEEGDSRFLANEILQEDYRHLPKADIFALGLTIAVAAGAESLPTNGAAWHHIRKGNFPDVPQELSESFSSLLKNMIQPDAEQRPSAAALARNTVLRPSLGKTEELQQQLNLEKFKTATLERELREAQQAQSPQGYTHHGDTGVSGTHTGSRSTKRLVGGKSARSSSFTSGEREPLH

[15] = biological target: BLK (human) (UniProt P51451)
[16] = biological target: ULK1 (human) (UniProt O75385)
[17] = biological target: MAP3K4 (human) (UniProt Q9Y6R4)
[18] = biological target: FGFR3 (human) (UniProt P22607)
[19] = biological target: LATS2 (human) (UniProt Q9NRM7)
[20] = biological target: ERN1 (human) (UniProt O75460)
[21] = biological target: MKNK1 (human) (UniProt Q9BUB5)
[22] = biological target: MAP4K3 (human) (UniProt Q8IVH8)
[23] = biological target: ULK3 (human) (UniProt Q6PHR2)
Sequence of ULK3 (human) (Q6PHR2 whole entry, looked up): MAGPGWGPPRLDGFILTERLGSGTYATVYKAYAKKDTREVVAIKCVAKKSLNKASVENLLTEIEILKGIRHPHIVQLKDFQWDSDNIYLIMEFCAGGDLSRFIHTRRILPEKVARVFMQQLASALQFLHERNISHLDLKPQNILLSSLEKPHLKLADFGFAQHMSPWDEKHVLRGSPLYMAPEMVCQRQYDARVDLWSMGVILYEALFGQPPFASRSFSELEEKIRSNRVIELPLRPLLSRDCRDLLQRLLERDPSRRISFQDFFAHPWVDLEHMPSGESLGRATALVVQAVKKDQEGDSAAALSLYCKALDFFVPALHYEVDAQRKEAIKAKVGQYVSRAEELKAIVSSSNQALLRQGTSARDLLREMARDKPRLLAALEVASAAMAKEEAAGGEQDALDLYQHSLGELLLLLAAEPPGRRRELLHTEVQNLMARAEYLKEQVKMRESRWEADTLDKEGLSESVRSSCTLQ

[24] = biological target: CSNK1G3 (human) (UniProt Q9Y6M4)
[25] = biological target: BMPR1B (human) (UniProt O00238)
[26] = biological target: PIM3 (human) (UniProt Q86V86)
[27] = biological target: PTK2 (human) (UniProt Q05397)
Sequence of PTK2 (human) (Q05397 whole entry, looked up): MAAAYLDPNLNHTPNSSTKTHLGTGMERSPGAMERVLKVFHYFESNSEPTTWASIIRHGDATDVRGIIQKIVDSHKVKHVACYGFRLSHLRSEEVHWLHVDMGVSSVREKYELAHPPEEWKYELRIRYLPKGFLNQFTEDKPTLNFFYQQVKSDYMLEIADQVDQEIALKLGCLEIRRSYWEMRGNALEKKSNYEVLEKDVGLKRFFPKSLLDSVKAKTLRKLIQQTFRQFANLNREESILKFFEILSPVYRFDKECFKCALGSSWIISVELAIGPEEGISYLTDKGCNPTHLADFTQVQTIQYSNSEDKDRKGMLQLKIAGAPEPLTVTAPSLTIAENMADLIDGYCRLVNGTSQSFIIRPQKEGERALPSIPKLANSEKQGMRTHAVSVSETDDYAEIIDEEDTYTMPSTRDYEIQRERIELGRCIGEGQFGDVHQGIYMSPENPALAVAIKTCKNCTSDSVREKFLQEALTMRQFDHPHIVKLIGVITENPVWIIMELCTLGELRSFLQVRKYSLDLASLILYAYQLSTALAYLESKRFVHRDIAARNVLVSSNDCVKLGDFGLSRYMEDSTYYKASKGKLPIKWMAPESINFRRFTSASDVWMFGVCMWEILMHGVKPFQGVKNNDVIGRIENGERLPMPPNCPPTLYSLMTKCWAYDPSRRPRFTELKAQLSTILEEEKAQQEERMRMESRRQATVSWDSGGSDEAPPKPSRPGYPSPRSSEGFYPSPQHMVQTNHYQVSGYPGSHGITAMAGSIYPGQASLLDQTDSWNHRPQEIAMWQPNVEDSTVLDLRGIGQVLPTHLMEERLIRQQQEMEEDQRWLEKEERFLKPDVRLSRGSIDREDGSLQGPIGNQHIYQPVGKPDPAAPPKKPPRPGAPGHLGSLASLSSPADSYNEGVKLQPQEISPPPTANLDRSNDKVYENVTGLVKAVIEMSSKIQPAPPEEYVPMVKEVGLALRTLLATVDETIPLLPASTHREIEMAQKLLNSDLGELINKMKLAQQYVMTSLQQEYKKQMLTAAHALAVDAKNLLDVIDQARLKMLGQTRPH

[28] = biological target: ROCK2 (human) (UniProt O75116)
[29] = biological target: MAP2K1 (human) (UniProt Q02750)
[30] = biological target: PKN1 (human) (UniProt Q16512)
[31] = biological target: KDR (human) (UniProt P35968)
Sequence of KDR (human) (P35968 whole entry, looked up): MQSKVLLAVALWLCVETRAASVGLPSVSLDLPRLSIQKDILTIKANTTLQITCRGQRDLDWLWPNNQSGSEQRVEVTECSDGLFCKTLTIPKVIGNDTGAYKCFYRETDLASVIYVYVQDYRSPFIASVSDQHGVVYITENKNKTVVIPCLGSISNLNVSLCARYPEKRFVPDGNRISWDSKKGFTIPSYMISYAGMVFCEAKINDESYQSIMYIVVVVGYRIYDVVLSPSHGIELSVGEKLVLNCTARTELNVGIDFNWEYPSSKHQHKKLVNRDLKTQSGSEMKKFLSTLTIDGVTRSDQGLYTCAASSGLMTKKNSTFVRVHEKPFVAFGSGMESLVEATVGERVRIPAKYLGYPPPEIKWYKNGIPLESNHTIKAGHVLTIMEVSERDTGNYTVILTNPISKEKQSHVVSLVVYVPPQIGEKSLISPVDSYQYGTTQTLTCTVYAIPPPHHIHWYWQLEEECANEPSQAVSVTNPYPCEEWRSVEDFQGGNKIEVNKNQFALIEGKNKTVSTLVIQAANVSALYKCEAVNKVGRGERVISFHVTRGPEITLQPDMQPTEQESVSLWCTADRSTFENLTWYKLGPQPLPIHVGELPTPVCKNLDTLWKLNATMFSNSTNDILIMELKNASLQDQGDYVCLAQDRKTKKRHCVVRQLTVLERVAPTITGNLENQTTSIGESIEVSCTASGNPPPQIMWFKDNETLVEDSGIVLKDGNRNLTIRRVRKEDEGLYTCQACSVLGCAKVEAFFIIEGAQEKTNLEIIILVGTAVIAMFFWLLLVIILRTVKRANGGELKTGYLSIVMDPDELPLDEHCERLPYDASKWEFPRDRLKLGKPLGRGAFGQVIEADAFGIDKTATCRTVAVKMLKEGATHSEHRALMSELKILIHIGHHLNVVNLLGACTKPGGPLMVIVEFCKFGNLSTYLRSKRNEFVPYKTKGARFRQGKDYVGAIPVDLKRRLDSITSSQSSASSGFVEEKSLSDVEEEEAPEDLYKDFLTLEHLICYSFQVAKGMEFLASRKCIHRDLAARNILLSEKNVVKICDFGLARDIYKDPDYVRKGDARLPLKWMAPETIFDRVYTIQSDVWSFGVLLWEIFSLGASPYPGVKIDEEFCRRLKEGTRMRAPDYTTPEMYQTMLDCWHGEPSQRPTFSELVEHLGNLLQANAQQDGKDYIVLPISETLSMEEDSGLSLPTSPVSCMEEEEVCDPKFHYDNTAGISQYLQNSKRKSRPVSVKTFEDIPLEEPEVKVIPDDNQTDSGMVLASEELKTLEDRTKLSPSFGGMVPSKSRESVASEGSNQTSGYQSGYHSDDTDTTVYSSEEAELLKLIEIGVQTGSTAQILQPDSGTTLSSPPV

[32] = biological target: DAPK3 (human) (UniProt O43293)
[33] = biological target: CAMK1G (human) (UniProt Q96NX5)
[34] = biological target: DCLK2 (human) (UniProt Q8N568)
[35] = test system: EGFR (human), P00533 [747-751 del / S ins]
[36] = biological target: PRKCD (human) (UniProt Q05655)
[37] = biological target: CHEK1 (human) (UniProt O14757)
[38] = biological target: CDK4 CCND1 (human) (UniProt P11802+P24385)
[39] = biological target: CDK13 (human) (UniProt Q14004)
[40] = biological target: SNRK (human) (UniProt Q9NRH2)

kinase still bound, per cent of control [1] [%] | kinase still bound, per cent of control [2] [%] | kinase still bound, per cent of control [4] [%] | kinase still bound, per cent of control [5] [%] | kinase still bound, per cent of control [7] [%] | kinase still bound, per cent of control [8] [%] | kinase still bound, per cent of control [9] [%] | kinase still bound, per cent of control [10] [%] | kinase still bound, per cent of control [11] [%] | kinase still bound, per cent of control [12] [%] | kinase still bound, per cent of control [13] [%] | kinase still bound, per cent of control [14] [%] | kinase still bound, per cent of control [16] [%] | kinase still bound, per cent of control [17] [%] | kinase still bound, per cent of control [18] [%] | kinase still bound, per cent of control [19] [%] | kinase still bound, per cent of control [20] [%] | kinase still bound, per cent of control [21] [%] | kinase still bound, per cent of control [23] [%] | kinase still bound, per cent of control [24] [%] | SMILES | other results
100 | 100 | 0.4 | 100 | 3.8 | 100 | 0 | 100 | 100 | 100 | 100 | 100 | 2.9 | 100 | 100 | 100 | 100 | 100 | 100 | 100 | COc1cc(N2CCN(C)CC2)ccc1Nc1ncc2c(n1)N(C)c1ccccc1C(=O)N2C | kinase still bound, per cent of control [3]: 100%; kinase still bound, per cent of control [6]: 100%; kinase still bound, per cent of control [15]: 100%; kinase still bound, per cent of control [22]: 100%; kinase still bound, per cent of control [25]: 100%; kinase still bound, per cent of control [26]: 100%; kinase still bound, per cent of control [27]: 16%; kinase still bound, per cent of control [28]: 100%; kinase still bound, per cent of control [29]: 100%; kinase still bound, per cent of control [30]: 100%; kinase still bound, per cent of control [31]: 100%; kinase still bound, per cent of control [32]: 100%; kinase still bound, per cent of control [33]: 100%; kinase still bound, per cent of control [34]: 0.45%; kinase still bound, per cent of control [35]: 100%; kinase still bound, per cent of control [36]: 100%; kinase still bound, per cent of control [37]: 100%
100 | 100 | 100 | 100 | 100 | 100 | 4.1 | 100 | 100 | 100 | 100 | 100 | 100 | 5.3 | 3.3 | 100 | 100 | 100 | 100 | 100 | CCN(CC)CCCCNc1ncc2c(n1)N(C)C(=O)N(c1c(Cl)c(OC)cc(OC)c1Cl)C2 | kinase still bound, per cent of control [3]: 100%; kinase still bound, per cent of control [6]: 100%; kinase still bound, per cent of control [15]: 100%; kinase still bound, per cent of control [22]: 100%; kinase still bound, per cent of control [25]: 100%; kinase still bound, per cent of control [26]: 100%; kinase still bound, per cent of control [27]: 100%; kinase still bound, per cent of control [28]: 100%; kinase still bound, per cent of control [29]: 100%; kinase still bound, per cent of control [30]: 100%; kinase still bound, per cent of control [31]: 100%; kinase still bound, per cent of control [32]: 100%; kinase still bound, per cent of control [33]: 100%; kinase still bound, per cent of control [34]: 100%; kinase still bound, per cent of control [35]: 100%; kinase still bound, per cent of control [36]: 100%; kinase still bound, per cent of control [37]: 100%
100 | 100 | 100 | 100 | 100 | 100 | 100 | 100 | 100 | 100 | 100 | 100 | 100 | 100 | 100 | 100 | 100 | 100 | 100 | 100 | CS(=O)(=O)N1CCN(Cc2cc3nc(-c4cccc5[nH]ncc45)nc(N4CCOCC4)c3s2)CC1 | kinase still bound, per cent of control [3]: 100%; kinase still bound, per cent of control [15]: 100%; kinase still bound, per cent of control [22]: 100%; kinase still bound, per cent of control [25]: 100%; kinase still bound, per cent of control [26]: 100%; kinase still bound, per cent of control [27]: 100%; kinase still bound, per cent of control [28]: 100%; kinase still bound, per cent of control [29]: 100%; kinase still bound, per cent of control [30]: 100%; kinase still bound, per cent of control [31]: 100%; kinase still bound, per cent of control [32]: 100%; kinase still bound, per cent of control [34]: 100%; kinase still bound, per cent of control [35]: 100%; kinase still bound, per cent of control [36]: 100%; kinase still bound, per cent of control [37]: 100%

SMILES | kinase still bound, per cent of control [1] [%] | kinase still bound, per cent of control [2] [%] | kinase still bound, per cent of control [4] [%] | kinase still bound, per cent of control [5] [%] | kinase still bound, per cent of control [7] [%] | kinase still bound, per cent of control [8] [%] | kinase still bound, per cent of control [9] [%] | kinase still bound, per cent of control [10] [%] | kinase still bound, per cent of control [11] [%] | kinase still bound, per cent of control [12] [%] | kinase still bound, per cent of control [13] [%] | kinase still bound, per cent of control [14] [%] | kinase still bound, per cent of control [16] [%] | kinase still bound, per cent of control [17] [%] | kinase still bound, per cent of control [18] [%] | kinase still bound, per cent of control [19] [%] | kinase still bound, per cent of control [20] [%] | kinase still bound, per cent of control [21] [%] | kinase still bound, per cent of control [23] [%] | kinase still bound, per cent of control [24] [%] | other results
C[C@@H](Oc1cc(-c2cnn(C3CCNCC3)c2)cnc1N)c1c(Cl)ccc(F)c1Cl | 24 | 93 | 7.1 | 100 | 2.4 | 1.8 | 0.1 | 85 | 80 | 80 | 78 | 100 | 1 | 34 | 22 | 56 | 42 | 100 | 8.8 | 100 | kinase still bound, per cent of control [38]: 51%; kinase still bound, per cent of control [39]: 24%; kinase still bound, per cent of control [6]: 84%; kinase still bound, per cent of control [40]: 100%; kinase still bound, per cent of control [25]: 61%; kinase still bound, per cent of control [26]: 100%; kinase still bound, per cent of control [27]: 0%; kinase still bound, per cent of control [28]: 8%; kinase still bound, per cent of control [29]: 64%; kinase still bound, per cent of control [30]: 38%; kinase still bound, per cent of control [31]: 78%; kinase still bound, per cent of control [32]: 94%; kinase still bound, per cent of control [33]: 76%; kinase still bound, per cent of control [34]: 1.2%; kinase still bound, per cent of control [36]: 100%; kinase still bound, per cent of control [37]: 91%
